From PubChem BioAssay (NCI)
Several values for one entry are separate records, joined by “and”; a condition that tells them apart may be missing. Equal values may be shown once.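 Tested at 5 concentrations; 48 h exposure; 96-well plates; endpoints linearly interpolated, else capped at highest concentration. GI50 = concentration required for 50% inhibition of growth. TGI: total growth inhibition.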

Tests used:
Experiment in all cases: DTP human tumour cell line panel, 48 h
DU-145 prostate = tested on: DU-145 prostate
HCT-116 colon = tested on: HCT-116 colon
HT29 colon = tested on: HT29 colon
IGROV1 ovarian = tested on: IGROV1 ovarian
LOX IMVI melanoma = tested on: LOX IMVI melanoma
MDA-MB-435 = tested on: MDA-MB-435
OVCAR-5 ovarian = tested on: OVCAR-5 ovarian
OVCAR-8 ovarian = tested on: OVCAR-8 ovarian
SK-MEL-2 melanoma = tested on: SK-MEL-2 melanoma
SN12C renal = tested on: SN12C renal
SR leukemia = tested on: SR leukemia
SW-620 colon = tested on: SW-620 colon
UACC-62 melanoma = tested on: UACC-62 melanoma
UO-31 renal = tested on: UO-31 renal

SMILES	TGI (DU-145 prostate) [µM]	TGI (HCT-116 colon) [µM]	TGI (HT29 colon) [µM]	TGI (IGROV1 ovarian) [µM]	TGI (LOX IMVI melanoma) [µM]	TGI (MDA-MB-435) [µM]	TGI (OVCAR-5 ovarian) [µM]	TGI (OVCAR-8 ovarian) [µM]	TGI (SK-MEL-2 melanoma) [µM]	TGI (SN12C renal) [µM]	TGI (SR leukemia) [µM]	TGI (SW-620 colon) [µM]	TGI (UACC-62 melanoma) [µM]	TGI (UO-31 renal)	GI50 (OVCAR-5 ovarian) [µM]	GI50 (UACC-62 melanoma)	GI50 (LOX IMVI melanoma) [µM]	GI50 (SN12C renal) [µM]
Cc1cc(=O)n2nc(CSc3n[nH]c(=S)s3)sc2n1	> 100	> 100	> 100	> 100	> 100	> 100	> 100	> 100	> 100	> 100	> 100	> 100	> 100	> 100 µM	–	–	–	–
O=C1NC(N2CCCCC2)=N/C1=C\c1ccccc1	> 100	> 100	> 100	> 100	> 100	> 100	> 100	> 100	> 100	> 100	> 100	> 100	> 100	> 100 µM	–	–	–	–
CC(C)C[C@H](NC(=O)CCc1cccc2ccccc12)B(O)O	> 65.6	2.91	6.27	23.8	1.77	1.02	6.72	19.6	6.74	21	2.2	3.26	5.59	8.73 µM	–	–	–	–
Brc1ccc(C2CC3(c4ccccc4)ON=C(c4ccccc4)N3c3ccccc3S2)cc1 (centres undefined)	> 100	> 100	> 100	> 100	> 100	> 100	> 100	> 100	> 100	> 100	> 100	> 100	> 100	> 100 µM	–	–	–	–
CC1(C)CN=C(Nc2ccc(F)c(Cl)c2)S1	> 100	> 100	> 100	> 100	> 100	> 100	> 100	> 100	> 100	> 100	> 100	> 100	> 100	> 100 µM	–	–	–	–
Nc1nc(Cc2ccccc2)nc(Cc2ccccc2)c1-c1ccccc1	56.1	46	> 100	> 100	51.4	59.3	> 100	> 100	29.8	> 100	48.5	> 100	43	> 100 µM	–	–	–	–
C[C@H](CO)C1=CC(C#C[Si](C)(C)C)N(C(=O)Oc2ccccc2)c2ccccc21 (some centres undefined)	31.7	22.7	20.5	29.9	33.5	7.25	30.5	42.9	30.2	25.5	82.5	> 100	19.9	21.4 µM	–	–	–	–
N#CC1=C(S)N(C2OC(CO)C(O)C(O)C2O)C(c2ccccc2)=CC1c1cccs1 (centres undefined)	> 10	75.7	37.5	45.7	36.9	44.1	> 100	65.9	50.2	32.4	> 100	65	48.3	> 100 µM	–	–	–	–
COC(=O)/C=C/c1cnc2c(c1)oc(=O)n2C	> 100	> 100	> 100	> 100	> 100	> 100	> 100	> 100	> 100	> 100	> 100	> 100	> 100	> 100 µM	–	–	–	–
FC(F)(F)C1(c2ccccc2)SCc2nc3ccccc3n21 (centres undefined)	> 100	> 100	> 100	> 100	> 100	> 100	> 100	> 100	> 100	> 100	> 100	> 100	> 100	> 100 µM	–	–	–	–
CCSc1nc(C)nc2c1sc1nc3ccccc3n12	> 100	> 100	> 100	> 100	> 100	> 100	> 100	> 100	> 100	> 100	> 100	> 100	> 100	> 100 µM	–	–	–	–
CC(C)(C)C(=O)CC(=O)C(F)(F)C(F)(F)C(F)(F)F.[Ag]	> 100	44.1	36	26.5	14.5	33.5	> 100	49.4	33.6	27.6	22.4	47	32	60.4 µM	–	–	–	–
Cc1ccc(NC(=S)N=Nc2c(O)[nH]c3ccccc23)cc1	> 100	> 100	> 100	> 100	> 100	> 100	> 100	> 100	> 100	> 100	> 100	> 100	> 100	> 100 µM	–	–	–	–
COC(=O)C1(Cc2ccc(C)cc2)Cc2c(C)cccc2C1=O (centres undefined)	72	31.9	34.2	> 100	38.6	13.2	> 100	> 100	28.7	43.4	50.9	> 100	92	> 100 µM	–	–	–	–
C(/C=C/Nc1ccc(-c2ccccc2)cc1)=Nc1ccc(-c2ccccc2)cc1	> 100	> 100	> 100	> 100	> 100	> 100	> 100	> 100	> 100	> 100	> 100	> 100	> 100	> 100 µM	–	–	–	–
COc1ccc(-c2nc(SC)n(C3OC(COC(C)=O)C(OC(C)=O)C(OC(C)=O)C3OC(C)=O)c(=O)c2C#N)cc1 (centres undefined)	> 100	> 100	> 100	> 100	> 100	> 100	> 100	> 100	> 100	> 100	> 100	> 100	> 100	77.6 µM and > 100 µM	> 100	40.5 µM and > 100 µM	–	–
CCOC1=NC(C(F)(F)F)(C(F)(F)F)N=C(N2CCCCC2)O1	> 100	> 100	> 100	> 100	> 100	> 100	> 100	> 100	> 100	> 100	> 100	> 100	> 100	> 100 µM	–	–	–	–
CCOC(=O)/C=C(/C(=O)OCC)n1ccc(=O)n(CC(=O)OCC)c1=O	17.1	2.57	3.24	3.33	1.81	3.64	3.19	6.41	12.1	4.61	3.61	0.707	3.24	3.03 µM	–	–	0.422	2
C=C(C1=CC(=O)C(C)(C)O1)[C@@H]1CC=C([C@@H]2CC[C@H]3[C@@]2(C)CC[C@H]2C(C)(C)C(=O)[C@H](OC(=O)CC(C)(O)CC(=O)O)C[C@]32C)[C@H](O)O1 (some centres undefined)	45.6	24	34.4	26.3	25.9	34.2	26.5	29.1	26.7	28	49.2	25.4	23.5	26.3 µM	–	–	–	–
COc1ccc2c(c1)C(=O)[C@@](Nc1ccc(C=O)cc1)(OC)[C@@](OC)(c1ccc([N+](=O)[O-])cc1)O2	> 10	> 10	> 10	> 10	> 10	> 10	> 10	> 10	> 10	> 10	> 10	> 10	> 10	> 10 µM	–	–	–	–
